Results taken from ChEMBL document CHEMBL1201862, “PubChem BioAssay data set” (2004).
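96-well plates; 48 h exposure; 5 concentrations. Endpoints by linear interpolation between flanking doses. Not reached: highest tested concentration assigned. GI50 marks 50% less growth.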 Activity calls are given as the source filed them. Rule as the data show it: active = GI50 up to about 1.1 µM and inactive = higher.

What was measured:
Experiment in all cases: growth of human tumour cells (NCI), 48 h
786-0 = system: 786-0
A498 = system: A498
A549 = system: A549
ACHN = system: ACHN
BT-549 = system: BT-549
CAKI-1 = system: CAKI-1
CCRF-CEM = system: CCRF-CEM
COLO 205 = system: COLO 205
DU-145 = system: DU-145
EKVX = system: EKVX
HCC 2998 = system: HCC 2998
HCT-116 = system: HCT-116
HCT-15 = system: HCT-15
HL-60 = system: HL-60
HOP-62 = system: HOP-62
HOP-92 = system: HOP-92
HT-29 = system: HT-29
Hs-578T = system: Hs-578T
IGROV-1 = system: IGROV-1
K562 = system: K562
KM12 = system: KM12
LOX IMVI = system: LOX IMVI
MCF7 = system: MCF7
MDA-MB-231 = system: MDA-MB-231
MDA-MB-435 = system: MDA-MB-435
MOLT-4 = system: MOLT-4
Malme-3M = system: Malme-3M
NCI-H226 = system: NCI-H226
NCI-H23 = system: NCI-H23
NCI-H460 = system: NCI-H460
NCI-H522 = system: NCI-H522
NCI/ADR-RES = system: NCI/ADR-RES
OVCAR-3 = system: OVCAR-3
OVCAR-4 = system: OVCAR-4
OVCAR-5 = system: OVCAR-5
OVCAR-8 = system: OVCAR-8
PC-3 = system: PC-3
RPMI-8226 = system: RPMI-8226
RXF 393 = system: RXF 393
SF-268 = system: SF-268
SF-295 = system: SF-295
SF-539 = system: SF-539
SK-MEL-28 = system: SK-MEL-28
SK-MEL-5 = system: SK-MEL-5
SN12C = system: SN12C
SNB-19 = system: SNB-19
SNB-75 = system: SNB-75
SR = system: SR
SW-620 = system: SW-620
TK-10 = system: TK-10
U-251 = system: U-251
UACC-257 = system: UACC-257
UO-31 = system: UO-31
SK-MEL-2 = system: SK-MEL-2
SK-OV-3 = system: SK-OV-3
UACC-62 = system: UACC-62

`Sc1ncc2[nH]nnc2n1` was tested, and the GI50 (786-0) was > 100 µM (inactive), the GI50 (A498) was > 100 µM (inactive) and the GI50 (A549) was > 100 µM (inactive). For the same compound, the GI50 (ACHN) was > 100 µM (inactive), the GI50 (BT-549) was > 100 µM (inactive) and the GI50 (CAKI-1) was > 100 µM (inactive). The GI50 (CCRF-CEM) was > 100 µM (inactive), the GI50 (COLO 205) was > 100 µM (inactive) and the GI50 (DU-145) was > 100 µM (inactive). For the same compound, the GI50 (EKVX) was > 100 µM (inactive), the GI50 (HCC 2998) was > 100 µM (inactive) and the GI50 (HCT-116) was > 100 µM (inactive). The GI50 (HCT-15) was greater than 100 µM, the GI50 (HL-60) was > 100 µM (inactive) and the GI50 (HOP-62) was > 100 µM (inactive). For the same compound, the GI50 (HOP-92) was > 100 µM (inactive), the GI50 (HT-29) was > 100 µM (inactive) and the GI50 (Hs-578T) was > 100 µM (inactive). The GI50 (IGROV-1) was > 100 µM (inactive), the GI50 (K562) was > 100 µM (inactive) and the GI50 (KM12) was > 100 µM (inactive). For the same compound, the GI50 (LOX IMVI) was > 100 µM (inactive), the GI50 (MCF7) was > 100 µM (inactive) and the GI50 (MDA-MB-231) was > 100 µM (inactive). For the same compound, the GI50 (MDA-MB-435) was > 100 µM (inactive), the GI50 (MOLT-4) was > 100 µM (inactive) and the GI50 (Malme-3M) was > 100 µM (inactive). For the same compound, the GI50 (NCI-H226) was > 100 µM (inactive), the GI50 (NCI-H23) was > 100 µM (inactive) and the GI50 (NCI-H460) was > 100 µM (inactive). For the same compound, the GI50 (NCI-H522) was > 100 µM (inactive), the GI50 (NCI/ADR-RES) was > 100 µM (inactive) and the GI50 (OVCAR-3) was > 100 µM (inactive). For the same compound, the GI50 (OVCAR-4) was > 100 µM (inactive), the GI50 (OVCAR-5) was > 100 µM (inactive) and the GI50 (OVCAR-8) was > 100 µM (inactive). For the same compound, the GI50 (PC-3) was > 100 µM (inactive), the GI50 (RPMI-8226) was > 100 µM (inactive) and the GI50 (RXF 393) was > 100 µM (inactive). The GI50 (SF-268) was > 100 µM (inactive), the GI50 (SF-295) was > 100 µM (inactive) and the GI50 (SF-539) was > 100 µM (inactive). For the same compound, the GI50 (SK-MEL-28) was > 100 µM (inactive), the GI50 (SK-MEL-5) was > 100 µM (inactive) and the GI50 (SN12C) was > 100 µM (inactive). The GI50 (SNB-19) was > 100 µM (inactive), the GI50 (SNB-75) was > 100 µM (inactive) and the GI50 (SR) was > 100 µM (inactive). The GI50 (SW-620) was > 100 µM (inactive), the GI50 (TK-10) was > 100 µM (inactive) and the GI50 (U-251) was > 100 µM (inactive). The GI50 (UACC-257) was > 100 µM (inactive) and the GI50 (UO-31) was > 100 µM (inactive).

For `Cc1ccc(N2CCc3c(C)c(C#N)c4nc5ccccc5n4c32)cc1`, the GI50 (786-0) was 12.1 µM (inactive), the GI50 (A549) was > 100 µM (inactive) and the GI50 (ACHN) was > 100 µM (inactive). The GI50 (BT-549) was > 100 µM (inactive), the GI50 (CAKI-1) was 70.6 µM (inactive) and the GI50 (CCRF-CEM) was > 100 µM (inactive). For the same compound, the GI50 (COLO 205) was 90.6 µM (inactive), the GI50 (DU-145) was > 100 µM (inactive) and the GI50 (HCC 2998) was > 100 µM (inactive). The GI50 (HCT-116) was > 100 µM (inactive), the GI50 (HCT-15) was greater than 100 µM and the GI50 (HL-60) was > 100 µM (inactive). For the same compound, the GI50 (HOP-62) was 36.6 µM (inactive), the GI50 (HOP-92) was 10.4 µM (inactive) and the GI50 (HT-29) was > 100 µM (inactive). For the same compound, the GI50 (Hs-578T) was 16 µM (inactive), the GI50 (IGROV-1) was 68.1 µM (inactive) and the GI50 (LOX IMVI) was > 100 µM (inactive). For the same compound, the GI50 (MCF7) was > 100 µM (inactive), the GI50 (MDA-MB-435) was 6.27 µM (inactive) and the GI50 (Malme-3M) was > 100 µM (inactive). For the same compound, the GI50 (NCI-H226) was > 100 µM (inactive), the GI50 (NCI-H23) was > 100 µM (inactive) and the GI50 (NCI-H460) was 99.1 µM (inactive). The GI50 (NCI-H522) was 9.04 µM (inactive), the GI50 (NCI/ADR-RES) was > 100 µM (inactive) and the GI50 (OVCAR-3) was > 100 µM (inactive). For the same compound, the GI50 (OVCAR-4) was > 100 µM (inactive), the GI50 (OVCAR-5) was > 100 µM (inactive) and the GI50 (OVCAR-8) was 49.3 µM (inactive). The GI50 (PC-3) was > 100 µM (inactive), the GI50 (RXF 393) was 32.1 µM (inactive) and the GI50 (SF-268) was 31.8 µM (inactive). The GI50 (SF-295) was 41.6 µM (inactive), the GI50 (SF-539) was 39.3 µM (inactive) and the GI50 (SK-MEL-28) was > 100 µM (inactive). For the same compound, the GI50 (SK-MEL-2) was 23.8 µM (inactive), the GI50 (SK-MEL-5) was > 100 µM (inactive) and the GI50 (SK-OV-3) was 59.3 µM (inactive). The GI50 (SN12C) was > 100 µM (inactive), the GI50 (SNB-19) was 37.4 µM (inactive) and the GI50 (SNB-75) was 22.7 µM (inactive). For the same compound, the GI50 (SR) was 2.94 µM (inactive), the GI50 (SW-620) was 85.9 µM (inactive) and the GI50 (TK-10) was > 100 µM (inactive). The GI50 (U-251) was 38.8 µM (inactive), the GI50 (UACC-257) was > 100 µM (inactive) and the GI50 (UACC-62) was 27 µM (inactive). The GI50 (UO-31) was > 100 µM (inactive).
